Experimental data: PubChem BioAssay (NCI)
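The compound was tested at five concentrations on cells cultured in 96-well plates, with a 48-hour exposure period. The concentration for 50% growth inhibition is given as GI50. TGI is the concentration that stops growth completely.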

Key:
Test in all cases: NCI anticancer screen, dose series, 48 h; in the data active = GI50 below about 0.43 µM; inactive = the rest
786-0 renal = tested on: 786-0 renal
A498 renal = tested on: A498 renal
A549 NSCLC = tested on: A549 NSCLC
ACHN renal = tested on: ACHN renal
BT-549 breast = tested on: BT-549 breast
CAKI-1 renal = tested on: CAKI-1 renal
COLO 205 colon = tested on: COLO 205 colon
DU-145 prostate = tested on: DU-145 prostate
EKVX NSCLC = tested on: EKVX NSCLC
HCC-2998 colon = tested on: HCC-2998 colon
HCT-116 colon = tested on: HCT-116 colon
HCT-15 colon = tested on: HCT-15 colon
HL-60(TB) leukemia = tested on: HL-60(TB) leukemia
HOP-62 NSCLC = tested on: HOP-62 NSCLC
HOP-92 NSCLC = tested on: HOP-92 NSCLC
HS 578T breast = tested on: HS 578T breast
HT29 colon = tested on: HT29 colon
IGROV1 ovarian = tested on: IGROV1 ovarian
K-562 leukemia = tested on: K-562 leukemia
KM12 colon = tested on: KM12 colon
LOX IMVI melanoma = tested on: LOX IMVI melanoma
M14 melanoma = tested on: M14 melanoma
MCF7 breast = tested on: MCF7 breast
MDA-MB-231 breast = tested on: MDA-MB-231 breast
MOLT-4 leukemia = tested on: MOLT-4 leukemia
NCI-H226 lung = tested on: NCI-H226 lung
NCI-H23 lung = tested on: NCI-H23 lung
NCI-H460 lung = tested on: NCI-H460 lung
NCI-H522 lung = tested on: NCI-H522 lung
NCI/ADR-RES ovarian = tested on: NCI/ADR-RES ovarian
OVCAR-3 ovarian = tested on: OVCAR-3 ovarian
OVCAR-5 ovarian = tested on: OVCAR-5 ovarian
OVCAR-8 ovarian = tested on: OVCAR-8 ovarian
PC-3 prostate = tested on: PC-3 prostate
RPMI-8226 leukemia = tested on: RPMI-8226 leukemia
RXF 393 renal = tested on: RXF 393 renal
SF-268 CNS = tested on: SF-268 CNS
SF-295 CNS = tested on: SF-295 CNS
SF-539 CNS = tested on: SF-539 CNS
SK-MEL-2 melanoma = tested on: SK-MEL-2 melanoma
SK-MEL-28 melanoma = tested on: SK-MEL-28 melanoma
SK-MEL-5 melanoma = tested on: SK-MEL-5 melanoma
SK-OV-3 ovarian = tested on: SK-OV-3 ovarian
SN12C renal = tested on: SN12C renal
SNB-19 CNS = tested on: SNB-19 CNS
SNB-75 CNS = tested on: SNB-75 CNS
SR leukemia = tested on: SR leukemia
SW-620 colon = tested on: SW-620 colon
TK-10 renal = tested on: TK-10 renal
U251 CNS = tested on: U251 CNS
UACC-257 melanoma = tested on: UACC-257 melanoma
UACC-62 melanoma = tested on: UACC-62 melanoma
UO-31 renal = tested on: UO-31 renal

CC(=O)O[C@@H]1CC(=O)O[C@@H]2C[C@@H](CC/C(Cl)=C/C/C=C\1C)O[C@@H]2CO
> 6.4 µM: TGI (KM12 colon)
inactive: GI50 (786-0 renal) > 25 µM | GI50 (A498 renal) 20.1 µM | GI50 (A549 NSCLC) > 25 µM | GI50 (ACHN renal) > 25 µM | GI50 (BT-549 breast) 24.5 µM | GI50 (CAKI-1 renal) > 25 µM | GI50 (COLO 205 colon) > 25 µM | GI50 (DU-145 prostate) > 22.1 µM | GI50 (EKVX NSCLC) > 15 µM | GI50 (HCC-2998 colon) > 25 µM | GI50 (HCT-116 colon) > 25 µM | GI50 (HCT-15 colon) > 25 µM | GI50 (HL-60(TB) leukemia) > 25 µM | GI50 (HOP-62 NSCLC) > 25 µM | GI50 (HOP-92 NSCLC) > 25 µM | GI50 (HS 578T breast) > 25 µM | GI50 (HT29 colon) > 25 µM | GI50 (IGROV1 ovarian) > 25 µM | GI50 (K-562 leukemia) > 25 µM | GI50 (LOX IMVI melanoma) > 25 µM | GI50 (M14 melanoma) > 25 µM | GI50 (MCF7 breast) > 25 µM | GI50 (MDA-MB-231 breast) > 25 µM | GI50 (MOLT-4 leukemia) > 25 µM | GI50 (NCI-H226 lung) > 25 µM | GI50 (NCI-H23 lung) > 25 µM | GI50 (NCI-H460 lung) > 25 µM | GI50 (NCI-H522 lung) > 25 µM | GI50 (NCI/ADR-RES ovarian) > 25 µM | GI50 (OVCAR-5 ovarian) > 25 µM | GI50 (OVCAR-8 ovarian) > 25 µM | GI50 (PC-3 prostate) > 25 µM | GI50 (RPMI-8226 leukemia) > 25 µM | GI50 (RXF 393 renal) > 25 µM | GI50 (SF-268 CNS) > 25 µM | GI50 (SF-539 CNS) > 25 µM | GI50 (SK-MEL-2 melanoma) > 25 µM | GI50 (SK-MEL-28 melanoma) > 25 µM | GI50 (SK-MEL-5 melanoma) > 25 µM | GI50 (SK-OV-3 ovarian) > 25 µM | GI50 (SN12C renal) > 25 µM | GI50 (SNB-19 CNS) > 25 µM | GI50 (SNB-75 CNS) > 25 µM | GI50 (SR leukemia) > 25 µM | GI50 (SW-620 colon) > 25 µM | GI50 (TK-10 renal) > 25 µM | GI50 (U251 CNS) > 25 µM | GI50 (UACC-257 melanoma) > 25 µM | GI50 (UACC-62 melanoma) > 25 µM | GI50 (UO-31 renal) > 25 µM
> 25 µM: TGI (786-0 renal) | TGI (A498 renal) | TGI (A549 NSCLC) | TGI (ACHN renal) | TGI (BT-549 breast) | TGI (CAKI-1 renal) | TGI (COLO 205 colon) | TGI (DU-145 prostate) | TGI (EKVX NSCLC) | TGI (HCC-2998 colon) | TGI (HCT-116 colon) | TGI (HCT-15 colon) | TGI (HL-60(TB) leukemia) | TGI (HOP-62 NSCLC) | TGI (HOP-92 NSCLC) | TGI (HS 578T breast) | TGI (HT29 colon) | TGI (IGROV1 ovarian) | TGI (K-562 leukemia) | TGI (LOX IMVI melanoma) | TGI (M14 melanoma) | TGI (MCF7 breast) | TGI (MDA-MB-231 breast) | TGI (MOLT-4 leukemia) | TGI (NCI-H226 lung) | TGI (NCI-H23 lung) | TGI (NCI-H460 lung) | TGI (NCI-H522 lung) | TGI (NCI/ADR-RES ovarian) | TGI (OVCAR-5 ovarian) | TGI (OVCAR-8 ovarian) | TGI (PC-3 prostate) | TGI (RPMI-8226 leukemia) | TGI (RXF 393 renal) | TGI (SF-268 CNS) | TGI (SF-295 CNS) | TGI (SF-539 CNS) | TGI (SK-MEL-2 melanoma) | TGI (SK-MEL-28 melanoma) | TGI (SK-MEL-5 melanoma) | TGI (SK-OV-3 ovarian) | TGI (SN12C renal) | TGI (SNB-19 CNS) | TGI (SNB-75 CNS) | TGI (SR leukemia) | TGI (SW-620 colon) | TGI (TK-10 renal) | TGI (U251 CNS) | TGI (UACC-257 melanoma) | TGI (UACC-62 melanoma) | TGI (UO-31 renal)
> 10.6 µM: TGI (OVCAR-3 ovarian)
